The subject of assay [1] is Murine MC3T3-E1 cells. In words: Collagen maturity assay in MC3T3-E1 cultures (Example 2). Type of assay: cell-based. Conditions: MC3T3-E1 cultures (FIGS. 5-7). Here is the method:
At confluence, the propagation medium was replaced by the differentiation medium containing αMEM supplemented with 5% FBS, 5% bovine calf serum, 100 U/mL penicillin, 100 μg/mL streptomycin, 50 μg/ml ascorbic acid and various concentrations of analogues. This day was considered as day 1. The differentiation medium was replenished every two days. […] Cultures were rinsed at least six times with milliQ water, fixed in absolute ethanol, scrapped off the culture dish and transferred onto BaF2 windows where they were air-dried. Integrity of the collagen extracellular matrix was verified by comparing the obtained Fourier transform infrared spectrum with those of commercial collagen. Spectral analysis was performed using a Bruker Vertex 70 spectrometer (Bruker optics, Ettlingen, Germany) interfaced with a Bruker Hyperion 3000 infrared microscope equipped with a standard single element Mercury Cadmium Telluride (MCT) detector. Infrared spectra were recorded at a resolution of 4 cm^−1, with an average of 32 scans in transmission mode. Background spectral images were collected under identical conditions from the same BaF2 windows at the beginning and end of each experiment to ensure instrument stability. At least 20 spectra were acquired for each condition and analyzed with a lab-made routine script in Matlab R2016b (The Mathworks, Natick, MA).

Assay [2] deals with ovariectomy-induced bone loss in mice. Put plainly: Bone matrix composition by FTIRI at the femur midshaft, ovariectomized mice. Conditions: OVX mice, cortical bone femur, once 100 μg/kg iv, vs vehicle. The assay is classed as in vivo. Here is the method: At 16 weeks of age, ALZET osmotic pumps (model number 2006, Durect Corp., Cupertino, CA) filled with the below saline or peptide were implanted subcutaneously between the two scapula under general anesthesia in 32 mice. Successful filling of pumps was verified by weighting the pump before and after filling. At 20 weeks of age, ALZET osmotic pumps were replaced by similar pumps to ensure delivery for four new weeks. […] This dose and regimen of zoledronic acid was equivalent to the 5 mg infusion approved for the treatment of post-menopausal osteoporosis in humans. After three-point bending experiments, femurs were embedded undecalcified in pMMA at 4° C. One-micrometer cross-sectional sections of the midshaft femur were sandwiched between BaF2 optical windows and Fourier transform infrared imaging (FTIRI) assessment was performed in the posterior quadrant. FTIRI was performed with a vertex 70 spectrometer (Bruker, Ettlingen, Germany) interfaced with a Hyperion 3000 microscope and a focal plane array detector (64×64 pixels) covering a field of view of 180×180 μm. Nine field-of-view were stitched together to allow sufficient bone to be analyzed. Sections were scanned with a spectral resolution of 8 cm^-1 (spectral region 900-2000 cm^-1). Each spectrum was corrected for Mie scattering with the […]5 algorithm (kind gift of Prof Peter Gardner, University of Manchester, UK) prior to be subjected to pMMA subtraction. Evaluation of spectral images was done with a lab-made routine script in Matlab R2016b (The Mathworks, Natick, MA) as described in Aguado et al. (2017) Calcif Tissue Int 100:332-340. FTIR bone parameters ([…] (2012) Methods Mol Biol 816:517-525) calculated were: (1) phosphate/amide ratio (area of v1, v3 phosphate/area amide1); (2) acid phosphate content (intensity ratio 1127 cm^-1/1096 cm^-1) (Spevak et al. (2013) Calcif Tissue Int 92:418-428); (3) mineral crystallinity (intensity ratio 1030 cm^-1/1020 cm^-1), reflecting crystal size and perfection; […] (2001) J Bone Miner Res 16:893-900). For each of the compositional parameters, the mean and full width at half maximum of the pixel distribution (excluding the zero background values) were computed and represented as mean and heterogeneity.

For assay [3] the test system is unchanged. In words: Trabecular bone microarchitecture, fifth lumbar vertebra, ovariectomized mice. The assay is classed as in vivo. Conditions: OVX mice, L5, once 100 μg/kg iv, vs vehicle. As for the experimental part: At 16 weeks of age, ALZET osmotic pumps (model number 2006, Durect Corp., Cupertino, CA) filled with the below saline or peptide were implanted subcutaneously between the two scapula under general anesthesia in 32 mice. Successful filling of pumps was verified by weighting the pump before and after filling. At 20 weeks of age, ALZET osmotic pumps were replaced by similar pumps to ensure delivery for four new weeks. […] This dose and regimen of zoledronic acid was equivalent to the 5 mg infusion approved for the treatment of post-menopausal osteoporosis in humans. Analyses of vertebral bodies of the fifth lumbar vertebra (L5) were performed with a Nanotom nanotomograph (Phoenix, GE, USA) operated at 85 kV, 220 μA, 1000 ms integration time. The isotropic pixel size was fixed at 4 μm, the rotation step at 0.25° and exposure was done with a 0.1 mm copper filter. Each 3D reconstruction image dataset was binarized using global thresholding. Trabecular volume of interest was computerized on coronal sections of the L5 vertebral body. Trabecular VOI was spread over the entire vertebral body excluding the first and last 80 μm from the anterior and posterior cortical wall. All microCT/NanoCT parameters were determined according to guidelines and nomenclature proposed by the American Society for Bone and Mineral Research (Bouxsein et al., 2010).

For assay [4], the system named is Murine Raw 264.7 cells. The assay is classed as cell-based. Here is the method: Murine Raw 264.7 cells were grown and expanded in propagation medium containing Dulbecco's modified Eagle medium (DMEM-Gibco) supplemented with 10% fetal bovine serum (FBS-Lonza), 100 U/mL penicillin and 100 μg/mL streptomycin (Gibco) in a humidified atmosphere enriched with 5% CO2 at 37° C. The first passage after thawing Raw 264.7 cells was considered as passage 1. Cells were used up to passage 8. […] Cultures were rinsed three times in distilled water and the residual activity was inhibited by 4% NaF (Sigma-Aldrich) for 30 min. Cells were then rinsed in distilled water and allowed to dry. TRAcP positive cells, with more than three nuclei, were identified as osteoclasts. The number of newly generated osteoclasts was assessed using light microscopic examination by a histologist that was blinded to the treatment intervention. […] For each concentration of peptide, the mean, SD and number of events were computed.

Assay [5] relates to MC3T3-E1 subclone 4 cells. The assay is classed as cell-based, murine. As for the experimental part:
Briefly, MC3T3-E1 subclone 4 cells have been grown and propagated in α-MEM supplemented with 5% fetal bovine serum (FBS), 5% bovine calf serum (BCS), 100 U/mL penicillin, and 100 μg/mL streptomycin in a humidified atmosphere enriched with 5% CO2 at 37° C. […] This day was considered as day 1. The differentiation medium was replenished every two days. […] Cultures were rinsed at least six times with milliQ water, fixed in absolute ethanol, scrapped off the culture dish and transferred onto BaF2 windows where they were air-dried. Integrity of the collagen extracellular matrix was verified by comparing the obtained Fourier transform infrared spectrum with those of commercial collagen. Spectral analysis was performed using a Bruker Vertex 70 spectrometer (Bruker optics, Ettlingen, Germany) interfaced with a Bruker Hyperion 3000 infrared microscope equipped with a standard single element Mercury Cadmium Telluride (MCT) detector. Calibration of the infrared spectrometer is done once a week with a polystyrene film standard (Bruker optics). Infrared spectra were recorded at a resolution of 4 cm^-1, with an average of 32 scans in transmission mode. Background spectral images were collected under identical conditions from the same BaF2 windows at the beginning and end of each experiment to ensure instrument stability. At least 5 spectra were acquired for each condition and analyzed with a lab-made routine script (version 2.0) in Matlab R2016b (The Mathworks, Natick, MA). […] For GIP and GLP-2 dataset, the inventors used the collagen maturity data previously acquired and analyzed. First of all, collagen maturity obtained in control cultures, i.e. in the absence of double GIP/GLP-2 analogues, were averaged and subtracted to the all dataset. […] For each concentration of peptide, the mean, SD and number of events were computed. […] The GraphPad Prism analysis consisted in: […] Statistical Analysis […] Data are represented as mean±SD.

A word on the EC50: it is the concentration needed to bring the measured effect to its halfway point. Read a low EC50 as an effect from little substance.

Ends that are not written are not given here.

Turning to `CC[C@H](C)[C@H](NC(=O)[C@H](CO)NC(=O)[C@H](CCSC)NC(=O)[C@H](CC(=O)O)NC(=O)[C@H](CO)NC(=O)CNC(=O)[C@H](Cc1ccccc1)NC(=O)[C@H](CO)NC(=O)CNC(=O)[C@H](CCC(=O)O)NC(=O)CNC(=O)[C@@H](N)Cc1c[nH]cn1)C(=O)N[C@@H](C)C(=O)N[C@@H](CC(C)C)C(=O)N[C@@H](CC(=O)O)C(=O)N[C@@H](CCCCN)C(=O)N[C@@H](CC(C)C)C(=O)N[C@@H](C)C(=O)N[C@@H](C)C(=O)N[C@@H](CCCNC(=N)N)C(=O)N[C@@H](CC(=O)O)C(=O)N[C@@H](Cc1ccccc1)C(=O)N[C@H](C(=O)N[C@@H](CC(N)=O)C(=O)N[C@@H](Cc1c[nH]c2ccccc12)C(=O)N[C@@H](CC(C)C)C(=O)N[C@@H](CC(C)C)C(=O)N[C@@H](CCC(N)=O)C(=O)N[C@H](C(=O)N[C@@H](CCCCN)C(=O)N[C@H](C(=O)N[C@H](C(=O)N[C@@H](CC(=O)O)C(=O)NCC(=O)N[C@@H](C)C(=O)N[C@@H](C)C(=O)N[C@@H](CC(=O)O)C(=O)N[C@@H](CC(=O)O)C(=O)N[C@@H](CC(=O)O)C(=O)N[C@@H](CC(=O)O)C(=O)N[C@@H](CC(=O)O)C(=O)N[C@@H](CC(=O)O)C(N)=O)[C@@H](C)O)[C@@H](C)CC)[C@@H](C)O)C(C)C` [GL-0001-Tag], the “profile of collagen maturity versus concentration” value in assay [1] is “biphasic profile”.
Still for that read-out and setting: the value for `CC[C@H](C)[C@H](NC(=O)[C@H](CO)NC(=O)[C@H](CCSC)NC(=O)[C@H](CC(=O)O)NC(=O)[C@H](CO)NC(=O)[C@@H](NC(=O)[C@H](Cc1ccccc1)NC(=O)[C@H](CO)NC(=O)CNC(=O)[C@H](CCC(=O)O)NC(=O)CNC(=O)[C@@H](N)Cc1c[nH]cn1)C(C)C)C(=O)N[C@H](C(=O)N[C@@H](CC(C)C)C(=O)N[C@@H](CC(=O)O)C(=O)N[C@@H](CCCCN)C(=O)N[C@@H](CC(C)C)C(=O)N[C@@H](C)C(=O)N[C@@H](C)C(=O)N[C@@H](CCCNC(=N)N)C(=O)N[C@@H](CC(=O)O)C(=O)N[C@@H](Cc1ccccc1)C(=O)N[C@H](C(=O)N[C@@H](CC(N)=O)C(=O)N[C@@H](Cc1c[nH]c2ccccc12)C(=O)N[C@@H](CC(C)C)C(=O)N[C@@H](CC(C)C)C(=O)N[C@@H](CCC(N)=O)C(=O)N[C@H](C(=O)N[C@@H](CCCCN)C(N)=O)[C@@H](C)O)C(C)C)C(C)C` [GL-0002] was “biphasic profile”; that for `CSCC[C@H](NC(=O)[C@H](CC(=O)O)NC(=O)[C@H](CO)NC(=O)[C@@H](NC(=O)[C@H](Cc1ccccc1)NC(=O)[C@H](CO)NC(=O)CNC(=O)[C@H](CCC(=O)O)NC(=O)CNC(=O)[C@@H](N)Cc1c[nH]cn1)C(C)C)C(=O)N[C@@H](CO)C(=O)N[C@H](C(=O)N[C@H](C(=O)N[C@@H](CC(C)C)C(=O)N[C@@H](CC(=O)O)C(=O)N[C@@H](CCCCN)C(=O)N[C@@H](CC(C)C)C(=O)N[C@@H](C)C(=O)N[C@@H](C)C(=O)N[C@@H](CCCNC(=N)N)C(=O)N[C@@H](CC(=O)O)C(=O)N[C@@H](Cc1ccccc1)C(=O)N[C@H](C(=O)N[C@@H](CC(N)=O)C(=O)N[C@@H](Cc1c[nH]c2ccccc12)C(=O)N[C@@H](CC(C)C)C(=O)N[C@@H](CC(C)C)C(=O)N[C@@H](CCC(N)=O)C(=O)N[C@H](C(=O)N[C@@H](CCCCN)C(N)=O)[C@@H](C)O)C(C)C)C(C)C)C(C)C` [GL-0004] was “biphasic profile”.
On to `O=P(O)(O)C(O)(Cn1ccnc1)P(=O)(O)O` [zoledronic acid], for which the “augmentation of mineral crystallinity heterogeneity” value in assay [2] is 21%. Further, in assay [3], the “increase in trabecular bone mass (BV/TV)” value amounted to 15% and the “increase in trabecular number” value worked out at 12%.
Consider “HAEGTFISDYSIAMDKLAARDFINWLIQTKITD-NH2 (C-terminus assumed) [Co-7]”, for which the EC50 turned out to be 1.48 nM in assay [4] and 8.6 ± 6.9 pM in assay [5]. In addition, the IC50 computed from curve fitting of osteoclastogenesis vs. peptide concentration in assay [4] (Raw 264.7, RANKL 10 ng/ml, 110 h, * values determined from previous experiments) is 1480 pM. In assay [4] (Raw 264.7, * data obtained in previous experiments), the “Emax, maximum inhibitory effect on osteoclastogenesis” value is recorded as 58.05%. For the same compound, the “Cl at EC50 of GIP and GLP-2 (combination index for osteoclastogenesis)” value in assay [4] (at 36.8 pM, Chou & Talalay) amounted to 271.28. Moreover, in assay [4] (at EC50 of GIP and GLP-2, 36.8 pM), the “Interpretation of combination index for osteoclastogenesis” value is “Very strong antagonism (CI>10: very strong antagonism)”. In assay [5] (69 pM, t-test vs additivity 1.0±0.15), the “Interpretation of combination index on collagen maturity at EC50” value was “Additive (CI 0.85-1.15: additive)”. The “Interpretation of combination index on collagen maturity at […] EC50” value in assay [5] (100 pM, t-test vs additivity 1.0±0.15) is reported as “Antagonism (CI 1.45-3.3: antagonism)”. Moreover, in assay [5] (MC3T3-E1, day 14), the “Emax for dose-effect curves on collagen maturity” value was found to be 115.6%. Moreover, the “effect on collagen maturity index” value in assay [5] (MC3T3-E1, vs cultures without peptide (FIG. 20)) is recorded as “very modest”. The “Cl at […] EC50 (combination index on collagen maturity)” value in assay [5] (at […] mean EC50 of GIP and GLP-2, 100 pM, Chou & Talalay, mean ± SD) turned out to be 2.30 ± 1.01. Moreover, in assay [5] (at mean EC50 of GIP and GLP-2, 69 pM, Chou & Talalay, mean ± SD), the “Cl at EC50 (combination index on collagen maturity)” value amounted to 1.53 ± 1.10.

The values above are taken from patent publication US12617831B2 (UNIVERSITE D'ANGERS, priority 2019, dated 2026).
